Laboratory results reported in ChEMBL document CHEMBL1909046, “DrugMatrix in vitro pharmacology data”.

Columns and labels:
[1] = target: T1, Endothelin-1 receptor (Homo sapiens, UniProt P25101); format: cell membranes, CHO-K1, Membrane; settings: cho-k1; further: in other assays of this panel Not Active means under 50% inhibition at 10 µM
T1 sequence (P25101 whole entry): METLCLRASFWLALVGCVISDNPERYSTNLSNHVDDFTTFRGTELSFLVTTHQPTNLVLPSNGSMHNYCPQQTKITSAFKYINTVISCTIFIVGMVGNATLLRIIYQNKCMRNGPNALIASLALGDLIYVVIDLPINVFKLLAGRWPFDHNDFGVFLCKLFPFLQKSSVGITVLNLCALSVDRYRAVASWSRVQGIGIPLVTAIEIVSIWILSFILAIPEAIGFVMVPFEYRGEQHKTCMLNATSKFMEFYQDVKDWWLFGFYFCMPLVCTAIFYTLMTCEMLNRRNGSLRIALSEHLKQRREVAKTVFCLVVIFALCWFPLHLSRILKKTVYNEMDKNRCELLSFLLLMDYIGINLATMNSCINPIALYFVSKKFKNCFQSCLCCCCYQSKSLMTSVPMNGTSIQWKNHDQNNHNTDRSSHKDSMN

[2] = target: Melanocortin receptor 3 (Homo sapiens, UniProt P41968); format: cell membranes, HEK293, Membrane; settings: hek293; further: in other assays of this panel Not Active means under 50% inhibition at 10 µM
Chain of Melanocortin receptor 3 (P41968 whole entry): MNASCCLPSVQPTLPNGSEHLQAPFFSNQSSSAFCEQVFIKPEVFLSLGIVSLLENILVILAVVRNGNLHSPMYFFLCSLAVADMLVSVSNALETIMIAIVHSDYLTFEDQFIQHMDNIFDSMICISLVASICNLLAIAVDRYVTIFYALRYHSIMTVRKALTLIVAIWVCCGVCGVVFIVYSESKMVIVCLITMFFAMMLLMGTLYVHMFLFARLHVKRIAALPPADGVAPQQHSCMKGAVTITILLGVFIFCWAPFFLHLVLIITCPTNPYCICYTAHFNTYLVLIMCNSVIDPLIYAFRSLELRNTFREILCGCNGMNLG

[3] = target: T2, Progesterone receptor (Bos taurus, UniProt Q690N0); assay: DRUGMATRIX: Progesterone radioligand binding (ligand: [3H] R-5020); format: tissue-based, Uterus; settings: Not Active = under 50% inhibition at 10 µM
T2 sequence (Q690N0 whole entry): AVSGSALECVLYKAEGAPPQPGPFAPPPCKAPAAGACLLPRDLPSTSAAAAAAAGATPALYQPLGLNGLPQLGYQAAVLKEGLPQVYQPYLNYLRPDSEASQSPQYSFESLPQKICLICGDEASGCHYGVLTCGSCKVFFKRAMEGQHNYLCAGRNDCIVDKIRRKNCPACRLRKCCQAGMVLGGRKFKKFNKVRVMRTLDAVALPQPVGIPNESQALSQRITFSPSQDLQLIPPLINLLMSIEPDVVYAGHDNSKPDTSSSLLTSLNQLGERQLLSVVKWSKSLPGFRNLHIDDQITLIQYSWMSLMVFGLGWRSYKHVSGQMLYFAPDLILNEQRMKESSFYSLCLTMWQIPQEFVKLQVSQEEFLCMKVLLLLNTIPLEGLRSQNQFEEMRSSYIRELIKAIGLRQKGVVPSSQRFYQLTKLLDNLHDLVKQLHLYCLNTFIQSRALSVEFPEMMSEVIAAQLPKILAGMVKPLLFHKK

[4] = target: Nitric oxide synthase 1 (Rattus norvegicus, UniProt P29476); format: tissue-based, Cerebellum; further: in other assays of this panel Not Active means under 50% inhibition at 10 µM
Chain of Nitric oxide synthase 1 (P29476 whole entry): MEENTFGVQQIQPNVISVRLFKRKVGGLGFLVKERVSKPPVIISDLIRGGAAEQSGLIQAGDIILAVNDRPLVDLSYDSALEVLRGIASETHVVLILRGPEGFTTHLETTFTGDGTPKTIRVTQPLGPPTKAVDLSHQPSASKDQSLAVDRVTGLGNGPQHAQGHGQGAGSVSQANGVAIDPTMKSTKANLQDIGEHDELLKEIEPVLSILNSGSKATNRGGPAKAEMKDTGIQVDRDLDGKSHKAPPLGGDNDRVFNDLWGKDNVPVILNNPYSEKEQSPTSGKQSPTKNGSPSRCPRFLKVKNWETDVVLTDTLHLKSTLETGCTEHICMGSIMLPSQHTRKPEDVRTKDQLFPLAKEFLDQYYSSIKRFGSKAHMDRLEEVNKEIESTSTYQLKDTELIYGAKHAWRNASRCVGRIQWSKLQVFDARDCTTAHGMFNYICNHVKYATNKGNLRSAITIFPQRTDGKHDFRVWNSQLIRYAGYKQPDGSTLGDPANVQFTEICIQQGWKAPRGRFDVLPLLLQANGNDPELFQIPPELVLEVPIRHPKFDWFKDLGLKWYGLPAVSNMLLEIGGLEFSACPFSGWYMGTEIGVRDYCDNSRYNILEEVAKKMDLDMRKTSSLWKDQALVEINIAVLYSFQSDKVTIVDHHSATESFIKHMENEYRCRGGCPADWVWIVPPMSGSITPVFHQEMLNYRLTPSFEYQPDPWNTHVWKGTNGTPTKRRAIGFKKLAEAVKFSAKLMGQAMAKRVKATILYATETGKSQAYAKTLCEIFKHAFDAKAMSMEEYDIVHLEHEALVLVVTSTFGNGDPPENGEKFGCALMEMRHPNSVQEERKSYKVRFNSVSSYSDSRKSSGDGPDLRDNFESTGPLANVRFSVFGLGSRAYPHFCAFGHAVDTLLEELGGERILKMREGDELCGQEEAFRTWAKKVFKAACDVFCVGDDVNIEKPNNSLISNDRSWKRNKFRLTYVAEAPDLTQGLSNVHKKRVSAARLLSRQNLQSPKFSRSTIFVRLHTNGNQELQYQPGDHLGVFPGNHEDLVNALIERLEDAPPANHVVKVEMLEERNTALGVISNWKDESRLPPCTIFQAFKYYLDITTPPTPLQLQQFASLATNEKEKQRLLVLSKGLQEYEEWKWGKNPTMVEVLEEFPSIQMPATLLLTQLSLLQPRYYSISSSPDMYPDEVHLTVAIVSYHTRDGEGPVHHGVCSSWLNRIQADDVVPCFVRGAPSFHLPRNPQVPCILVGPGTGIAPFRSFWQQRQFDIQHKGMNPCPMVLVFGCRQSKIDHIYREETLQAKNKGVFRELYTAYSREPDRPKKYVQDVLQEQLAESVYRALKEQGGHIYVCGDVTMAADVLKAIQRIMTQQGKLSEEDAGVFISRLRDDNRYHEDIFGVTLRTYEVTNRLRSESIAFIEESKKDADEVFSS

[5] = DRUGMATRIX: Imidazoline I2, Central radioligand binding (ligand: [3H] Idazoxan); format: cell membranes, Rattus norvegicus, Wistar, Cerebral cortex, Membrane; settings: Not Active = under 50% inhibition at 10 µM
[6] = DRUGMATRIX: Calcium Channel Type L, Dihydropyridine radioligand binding (ligand: [3H] Nitrendipine); format: cell membranes, Rattus norvegicus, Wistar, Cerebral cortex, Membrane; settings: Not Active = under 50% inhibition at 10 µM

Row | Structure (SMILES) | IC50 [1] | IC50 [2] | IC50 [3] | IC50 [4] | IC50 [5] | Ki [5] | IC50 [6] | Ki [6] | IC50 ([5]; read-out: IC50) | Ki ([5]; read-out: Ki) | IC50 ([6]; read-out: IC50) | Ki ([6]; read-out: Ki) | Ki [1] | Ki [2] | Ki [3] | Ki [4] | IC50 ([3]; read-out: IC50) | Ki ([3]; read-out: Ki)
1 | CC(C)CN(C[C@@H](O)[C@H](Cc1ccccc1)NC(=O)O[C@H]1CCOC1)S(=O)(=O)c1ccc(N)cc1 | Not Active | Not Active | Not Active | Not Active | Not Active | Not Active | Not Active | Not Active | – | – | – | – | – | – | – | – | – | –
2 | c1ccc(Nc2ccc(Nc3ccccc3)cc2)cc1 | Not Active | Not Active | Not Active | Not Active | Not Active | Not Active | Not Active | Not Active | – | – | – | – | – | – | – | – | – | –
3 | COc1cc2c3cc1Oc1cc(ccc1O)C[C@@H]1c4c(cc(OC)c(O)c4Oc4ccc(cc4)C[C@@H]3N(C)CC2)CC[N+]1(C)C.[Cl-] | Not Active | Not Active | Not Active | Not Active | Not Active | Not Active | Not Active | Not Active | – | – | – | – | – | – | – | – | – | –
4 | NC(=O)N1c2ccccc2CCc2ccccc21 | Not Active | Not Active | Not Active | Not Active | Not Active | Not Active | Not Active | Not Active | – | – | – | – | – | – | – | – | – | –
5 | O=C1CC[C@@H](N2C(=O)c3ccccc3C2=O)C(=O)N1 | Not Active | Not Active | Not Active | Not Active | Not Active | Not Active | Not Active | Not Active | – | – | – | – | – | – | – | – | – | –
6 | Cc1onc(O)c1CC(N)C(=O)O (racemic) [(R,S)-AMPA] | Not Active | Not Active | Not Active | Not Active | Not Active | Not Active | Not Active | Not Active | – | – | – | – | – | – | – | – | – | –
7 | Cc1ccc2cc3c(ccc4ccccc43)c3c2c1CC3 [3-METHYLCHOLANTHRENE] | Not Active | Not Active | Not Active | Not Active | Not Active | Not Active | Not Active | Not Active | – | – | – | – | – | – | – | – | – | –
8 | CC[C@@]1(O)C[C@H](O[C@H]2C[C@H](N(C)C)[C@H](O[C@H]3C[C@H](O)[C@H](O[C@H]4CCC(=O)[C@H](C)O4)[C@H](C)O3)[C@H](C)O2)c2c(cc3c(c2O)C(=O)c2c(O)cccc2C3=O)[C@H]1C(=O)OC [ACLARUBICIN] | Not Active | Not Active | Not Active | Not Active | Not Active | Not Active | Not Active | Not Active | – | – | – | – | – | – | – | – | – | –
9 | Nc1nc2c(ncn2COCCO)c(=O)[nH]1 [ACYCLOVIR] | Not Active | Not Active | Not Active | Not Active | Not Active | Not Active | Not Active | Not Active | – | – | – | – | – | – | – | – | – | –
10 | Cc1c(C)c2c(c(C)c1O)CC[C@@](C)(CCC[C@H](C)CCC[C@H](C)CCCC(C)C)O2 [ALPHA-TOCOPHEROL] | Not Active | Not Active | Not Active | Not Active | Not Active | Not Active | Not Active | Not Active | – | – | – | – | – | – | – | – | – | –
11 | CN(C)c1nc(N(C)C)nc(N(C)C)n1 [ALTRETAMINE] | Not Active | Not Active | – | Not Active | Not Active | Not Active | Not Active | Not Active | – | – | – | – | – | – | – | – | – | –
12 | Nc1c(Br)cc(Br)cc1CN[C@H]1CC[C@H](O)CC1 [AMBROXOL] | Not Active | Not Active | Not Active | Not Active | Not Active | Not Active | Not Active | Not Active | – | – | – | – | – | – | – | – | – | –
13 | NCCCCCC(=O)O [AMINOCAPROIC ACID] | Not Active | Not Active | Not Active | Not Active | Not Active | Not Active | Not Active | Not Active | – | – | – | – | – | – | – | – | – | –
14 | CCC1(c2ccc(N)cc2)CCC(=O)NC1=O (stereo unspecified) [AMINOGLUTETHIMIDE] | Not Active | Not Active | Not Active | Not Active | Not Active | Not Active | Not Active | Not Active | – | – | – | – | – | – | – | – | – | –
15 | Cc1ccc(/N=C/N(C)/C=N/c2ccc(C)cc2C)c(C)c1 [AMITRAZ] | Not Active | Not Active | Not Active | Not Active | – | – | Not Active | Not Active | 47.7 nM | 31.8 nM | – | – | – | – | – | – | – | –
16 | CCOC(=O)C1=C(COCCN)NC(C)=C(C(=O)OC)C1c1ccccc1Cl (stereo unspecified) [AMLODIPINE] | Not Active | Not Active | Not Active | Not Active | Not Active | Not Active | – | – | – | – | 31 nM | 20 nM | – | – | – | – | – | –
17 | COc1ccc(C[C@H]2NC[C@H](O)[C@H]2OC(C)=O)cc1 [ANISOMYCIN] | Not Active | Not Active | Not Active | Not Active | Not Active | Not Active | Not Active | Not Active | – | – | – | – | Not Active | Not Active | Not Active | Not Active | – | –
18 | Nc1ncn([C@@H]2O[C@H](CO)[C@@H](O)[C@H]2O)c(=O)n1 [AZACITIDINE] | Not Active | Not Active | Not Active | Not Active | Not Active | Not Active | Not Active | Not Active | – | – | – | – | – | – | – | – | – | –
19 | CN(C)C(=O)Oc1cc(OC(=O)N(C)C)cc(C(O)CNC(C)(C)C)c1 (stereo unspecified) [BAMBUTEROL] | Not Active | Not Active | Not Active | Not Active | Not Active | Not Active | Not Active | Not Active | – | – | – | – | – | – | – | – | – | –
20 | c1ccc2c(c1)c1cccc3ccc4cccc2c4c31 [BENZO[E]PYRENE] | Not Active | Not Active | Not Active | Not Active | Not Active | Not Active | Not Active | Not Active | – | – | – | – | – | – | – | – | – | –
21 | CNCCc1ccccn1 [BETAHISTINE] | Not Active | Not Active | Not Active | Not Active | Not Active | Not Active | Not Active | Not Active | – | – | – | – | – | – | – | – | – | –
22 | CC(C)C(Br)C(=O)NC(N)=O (stereo unspecified) [BROMISOVALUM] | Not Active | Not Active | Not Active | Not Active | Not Active | Not Active | Not Active | Not Active | – | – | – | – | – | – | – | – | – | –
23 | CCCC1O[C@@H]2C[C@H]3[C@@H]4CCC5=CC(=O)C=C[C@]5(C)[C@H]4[C@@H](O)C[C@]3(C)[C@]2(C(=O)CO)O1 (stereo partly specified) [BUDESONIDE] | Not Active | Not Active | – | Not Active | Not Active | Not Active | Not Active | Not Active | – | – | – | – | – | – | – | – | 210 nM | 27 nM
24 | CC(NC(C)(C)C)C(=O)c1cccc(Cl)c1 (stereo unspecified) [BUPROPION] | Not Active | Not Active | Not Active | Not Active | Not Active | Not Active | Not Active | Not Active | – | – | – | – | – | – | – | – | – | –
25 | CN(Cc1ccc(C(C)(C)C)cc1)Cc1cccc2ccccc12 [BUTENAFINE] | Not Active | Not Active | Not Active | Not Active | Not Active | Not Active | Not Active | Not Active | – | – | – | – | – | – | – | – | – | –
26 | CN(C)CCCN1c2ccccc2Sc2ccc(Cl)cc21 [CHLORPROMAZINE] | Not Active | – | Not Active | Not Active | – | – | Not Active | Not Active | 2670 nM | 1780 nM | – | – | – | – | – | – | – | –
